Reference: patent US5166204A, “Isoindole derivatives and salts thereof and antitumor agent comprising the same” (Toyama Chemical Co., Ltd., priority 1989, dated 1992)
Converted amounts (≈) assume the structure as drawn. Counter-ions that a name gives are not always drawn. Like-named read-outs stand apart in the source and are kept apart here. Each block holds one molecule with its values, some of them ahead of it.

Columns and labels:
HeLa S-3 cells = experiment: HeLa S-3 cell growth inhibition test; type: cell-based; conditions: Homo sapiens, 96 h; HeLa S-3 cells, 37° C., 4 days, Giemsa's staining; read-out: minimum growth inhibition concentration (MIC)
Method: (a) HeLa S-3 Cell Growth Inhibition Test
A test compound was appropriately diluted with a liquid medium (a minimum essential medium containing a 10% fecal calf serum). The resulting liquid was poured into each well of a 96-well micro titer plate, in an amount of 0.1 ml/well. Then, HeLa S-3 cells were diluted with the same liquid medium so that the cell concentration became 2×10^4 cells/ml, and the resulting liquid was poured into each well of the above plate in an amount of 0.1 ml/well. The resulting plate was allowed to stand in a CO2 gas incubator of 37° C. for 4 days, to effect incubation. After the incubation, the supernatant liquid in each well was removed and fixation by ethanol was effected for 10 minutes. The fixed cells were tinted with a Giemsa's staining solution to determine the minimum growth inhibition concentration (MIC) of test compound for HeLa S-3 cells.

Ehrlich solid cancer = experiment: Effect on Ehrlich solid cancer (tumor weight in mice); type: in vivo, ddY strain mice; conditions: Mus musculus, iv, 240 h; for response vs control in vivo at 14 mg/kg: 14 mg/kg i.v.; for response vs control in vivo at 7 mg/kg: 7 mg/kg i.v.; for response vs control in vivo at 10 mg/kg: 10 mg/kg i.v.; for response vs control in vivo at 50 mg/kg: 50 mg/kg i.v.
Method: (c) Effect on Ehrlich Solid Cancer 5×10^6 Ehrlich cells were transplanted to ddY strain mice in groups of 7 members (male, 5-week old, weight=about 25 g) subcutaneously at the left groin on day 0. […] Only the aqueous 5% glucose solution was administered to the control group. […] From the (a) and (b) was calculated T/C (%), using the following equation: T/C (%)=(a/b)×100

L-1210 ascites tumor = experiment: Effect on L-1210 ascites tumor (survival of tumor-transplanted mice); type: in vivo, CDF1 strain mice; conditions: Mus musculus, L1210, ip, 720 h, survival observed 30 days, read-out: prolongation of survival time T/C; for response vs control in vivo at 5 mg/kg: 5 mg/kg i.p.; for response vs control in vivo at 25 mg/kg: 25 mg/kg i.p.; for response vs control in vivo at 1 mg/kg: 1 mg/kg i.p.
Method: (b) Effect on L-1210 Ascites Tumor
1×10^5 L-1210 cells were intraperitoneally transplanted to CDF1 strain mice in groups of 6 members (male, 5-week old, weight =about 25 g) on day 0. A test compound dissolved in an aqueous 5% glucose solution was intraperitoneally administered to the test group of the above mice twice on day 1 and day 5. Only the aqueous 5% glucose solution was administered to the control group. Incidentally, the 25 mg/kg administration of the test compound No. 30 was effected only once on day 1. There were examined (a) the average survival days of the test group and (b) the average survival days of the control group. The examination period for survival days was 30 days. From the (a) and (b) was calculated a prolongation of survival time [T/C (%)], using the following equation: […]

[1] = twice on day 1 and day 5, day 10, read-out: T/C (average tumor weight, treated/control)
[2] = only once on day 1, day 10, read-out: T/C (average tumor weight, treated/control)

Structure (SMILES): COc1ccc2[nH]c3cc(C)c4c(c3c2c1)C(=O)N(CCN(C)C)C4=O [compound 17]
MIC (HeLa S-3 cells): 0.16 µg/mL (≈ 0.455 µM)
response vs control in vivo at 5 mg/kg (L-1210 ascites tumor; twice on day 1 and day 5): 126%
response vs control in vivo at 25 mg/kg (L-1210 ascites tumor; twice on day 1 and day 5): 129%

Structure (SMILES): CN(C)CCN1C(=O)c2ccc3[nH]c4ccccc4c3c2C1=O [compound 1]
MIC (HeLa S-3 cells): 3.13 µg/mL (≈ 10.2 µM)
response vs control in vivo at 25 mg/kg (L-1210 ascites tumor; twice on day 1 and day 5): 137%
response vs control in vivo at 50 mg/kg (Ehrlich solid cancer; daily for six consecutive days (day 1 to 6), day 10, read-out: T/C (average tumor weight, treated/control)): 18%

Structure (SMILES): Cc1cc2c(c3c1[nH]c1ccc(O)cc13)C(=O)N(CCN(C)C)C2=O.Cl [compound 24, N-(2-dimethylaminoethyl)-6-hydroxy-1-methylcarbazole-3,4-dicarboximide hydrochloride]
MIC (HeLa S-3 cells): 0.125 µg/mL
response vs control in vivo at 1 mg/kg (L-1210 ascites tumor; twice on day 1 and day 5): > 377%
response vs control in vivo at 5 mg/kg (Ehrlich solid cancer; 5 mg/kg i.v., twice on day 1 and day 5, day 10, read-out: T/C (average tumor weight, treated/control)): 12%

Structure (SMILES): CN(C)CCN1C(=O)c2ccc3[nH]c4cc(O)c(O)cc4c3c2C1=O [compound 31]
response vs control in vivo at 5 mg/kg (L-1210 ascites tumor; twice on day 1 and day 5): 176%
response vs control in vivo at 50 mg/kg (Ehrlich solid cancer; [2]): 31%

Structure (SMILES): CN(C)CCN1C(=O)c2ccc3c(c2C1=O)c1cc(O)ccc1n3C [compound 30]
MIC (HeLa S-3 cells): 0.1 µg/mL (≈ 0.296 µM)
response vs control in vivo at 5 mg/kg (L-1210 ascites tumor; twice on day 1 and day 5): 156%
response vs control in vivo at 25 mg/kg (L-1210 ascites tumor; only once on day 1): 172%

Structure (SMILES): CN(C)CCN1C(=O)c2ccc3[nH]c4cc5c(cc4c3c2C1=O)OCO5 [compound 22]
MIC (HeLa S-3 cells): 0.16 µg/mL (≈ 0.455 µM)
response vs control in vivo at 5 mg/kg (L-1210 ascites tumor; twice on day 1 and day 5): 143%
response vs control in vivo at 25 mg/kg (L-1210 ascites tumor; twice on day 1 and day 5): 160%

Structure (SMILES): Cc1cc2[nH]c3ccccc3c2c2c1C(=O)N(CCN(C)C)C2=O [compound 3]
MIC (HeLa S-3 cells): 0.1 µg/mL (≈ 0.311 µM)
response vs control in vivo at 25 mg/kg (L-1210 ascites tumor; twice on day 1 and day 5): 167%

Structure (SMILES): COc1ccc2[nH]c3ccc4c(c3c2c1)C(=O)N(CCN(C)C)C4=O [compound 15]
MIC (HeLa S-3 cells): 3.13 µg/mL (≈ 9.28 µM)
response vs control in vivo at 25 mg/kg (L-1210 ascites tumor; twice on day 1 and day 5): 160%

Structure (SMILES): CN(C)CCN1C(=O)c2ccc3[nH]c4ccc(Cl)cc4c3c2C1=O [compound 9]
MIC (HeLa S-3 cells): 3.13 µg/mL (≈ 9.16 µM)
response vs control in vivo at 25 mg/kg (L-1210 ascites tumor; twice on day 1 and day 5): 131%

Structure (SMILES): CN(C)CCN1C(=O)c2ccc3[nH]c4cc(O)ccc4c3c2C1=O [compound 28]
MIC (HeLa S-3 cells): 0.8 µg/mL (≈ 2.47 µM)
response vs control in vivo at 5 mg/kg (L-1210 ascites tumor; twice on day 1 and day 5): 176%
response vs control in vivo at 25 mg/kg (L-1210 ascites tumor; twice on day 1 and day 5): 379%

Structure (SMILES): CN(C)CCN1C(=O)c2ccc3[nH]c4ccc(O)cc4c3c2C1=O.Cl [compound 23, N-(2-dimethylaminoethyl)-6-hydroxycarbazole-3,4-dicarboximide hydrochloride]
MIC (HeLa S-3 cells): 0.8 µg/mL
response vs control in vivo at 1 mg/kg (L-1210 ascites tumor; twice on day 1 and day 5): 128%
response vs control in vivo at 5 mg/kg (L-1210 ascites tumor; twice on day 1 and day 5): > 272%
response vs control in vivo at 15 mg/kg (Ehrlich solid cancer; 15 mg/kg i.v., twice on day 1 and day 5, day 10, read-out: T/C (average tumor weight, treated/control)): 10%

Structure (SMILES): Cc1cc2c(c3c1[nH]c1ccccc13)C(=O)N(CCN(C)C)C2=O [compound 2]
MIC (HeLa S-3 cells): 0.16 µg/mL (≈ 0.498 µM)
response vs control in vivo at 5 mg/kg (L-1210 ascites tumor; twice on day 1 and day 5): 180%

Continued, in another order:

MIC (HeLa S-3 cells): 0.16 µg/mL
Structure (SMILES): CN(C)CCN1C(=O)c2cc(C3CCC3)c3[nH]c4ccc(O)cc4c3c2C1=O.Cl [compound 59, N-(2-dimethylaminoethyl)-1-cyclobutyl-6-hydroxycarbazole-3,4-dicarboximide hydrochloride]
response vs control in vivo at 14 mg/kg (Ehrlich solid cancer; [1]): 12%

MIC (HeLa S-3 cells): 0.31 µg/mL (≈ 0.776 µM)
Structure (SMILES): CN(C)CCN1C(=O)c2cc(-c3ccccc3)c3[nH]c4ccc(O)cc4c3c2C1=O [compound 27]
response vs control in vivo at 30 mg/kg (Ehrlich solid cancer; 30 mg/kg i.v., twice on day 1 and day 5, day 10, read-out: T/C (average tumor weight, treated/control)): 15%

MIC (HeLa S-3 cells): 0.063 µg/mL
Structure (SMILES): CCN(CC)CCN1C(=O)c2cc(C)c3[nH]c4ccc(O)cc4c3c2C1=O.Cl [compound 42, N-(2-diethylaminoethyl)-6-hydroxy-1-methylcarbazole-3,4-dicarboximide hydrochloride]
response vs control in vivo at 7 mg/kg (Ehrlich solid cancer; [1]): 18%

MIC (HeLa S-3 cells): 0.25 µg/mL (≈ 0.773 µM)
Structure (SMILES): CNCCN1C(=O)c2cc(C)c3[nH]c4ccc(O)cc4c3c2C1=O [compound 69]
response vs control in vivo at 10 mg/kg (Ehrlich solid cancer; [1]): 19%

MIC (HeLa S-3 cells): 0.16 µg/mL (≈ 0.474 µM)
Structure (SMILES): CCNCCN1C(=O)c2cc(C)c3[nH]c4ccc(O)cc4c3c2C1=O [compound 71]
response vs control in vivo at 10 mg/kg (Ehrlich solid cancer; [1]): 16%

MIC (HeLa S-3 cells): 0.04 µg/mL (≈ 0.114 µM)
Structure (SMILES): CCc1cc2c(c3c1[nH]c1ccc(O)cc13)C(=O)N(CCN(C)C)C2=O [compound 39]
response vs control in vivo at 10 mg/kg (Ehrlich solid cancer; [1]): 20%

MIC (HeLa S-3 cells): 0.16 µg/mL (≈ 0.424 µM)
Structure (SMILES): CC1CC1c1cc2c(c3c1[nH]c1ccc(O)cc13)C(=O)N(CCN(C)C)C2=O (centres unmarked) [compound 74]
response vs control in vivo at 10 mg/kg (Ehrlich solid cancer; [1]): 19%

MIC (HeLa S-3 cells): 0.08 µg/mL (≈ 0.226 µM)
Structure (SMILES): Cc1cc2c(c3c1sc1ccc(O)cc13)C(=O)N(CCN(C)C)C2=O [compound 61]
response vs control in vivo at 10 mg/kg (Ehrlich solid cancer; [2]): 27%

MIC (HeLa S-3 cells): 0.16 µg/mL
Structure (SMILES): CCN(CC)CCN1C(=O)c2cc(OC)c3[nH]c4ccc(O)cc4c3c2C1=O.Cl [compound 70, N-(2-diethylaminoethyl)-6-hydroxy-1-methoxycarbazole-3,4-dicarboximide hydrochloride]
response vs control in vivo at 10 mg/kg (Ehrlich solid cancer; [1]): 18%

MIC (HeLa S-3 cells): 0.31 µg/mL (≈ 0.866 µM)
Structure (SMILES): CN(C)CCN1C(=O)c2cc(Cl)c3[nH]c4ccc(O)cc4c3c2C1=O [compound 32]
response vs control in vivo at 25 mg/kg (Ehrlich solid cancer; 25 mg/kg i.v., only once on day 1, day 10, read-out: T/C (average tumor weight, treated/control)): 9%

MIC (HeLa S-3 cells): 0.06 µg/mL (≈ 0.17 µM)
Structure (SMILES): COc1cc2c(c3c1[nH]c1ccc(O)cc13)C(=O)N(CCN(C)C)C2=O [compound 38]
response vs control in vivo at 7 mg/kg (Ehrlich solid cancer; [1]): 12%

MIC (HeLa S-3 cells): 0.2 µg/mL
Structure (SMILES): CN(C)CCN1C(=O)c2cc(C3CC3)c3[nH]c4ccc(O)cc4c3c2C1=O [compound 49, N-(2-dimethylaminoethyl)-1-cyclopropyl-6-hydroxycarbazole-3,4-dicarboximidehydrochloride]
response vs control in vivo at 14 mg/kg (Ehrlich solid cancer; [1]): 19%
